Results from patent US5071983A, “Therapeutic nucleosides” (priority 1989, dated 1991).
Values joined by “and” are separate entries in the source; they are usually repeats but may differ in a detail not shown here. Equal entries are not always repeated. Where two headings read alike, the source gives them in different places.

Tests used:
HIV [1] = experiment: Antiviral activity against HIV (method of Mitsuya et al.); type: cell-based; conditions: Human immunodeficiency virus 1; for IC50: HIV; for minimal effective concentration: no % protection printed, read-out: Concentration at which found to have activity against HIV
Protocol: The compounds of Examples 1-6 were tested for activity against HIV generally in accordance with the method described by Mitsuya et al, Proc. Nat. Acad. Sci, USA Vol 82, pp 7096-7100, October 1985 and found to have activity against HIV at the following concentrations: […]

[2] = Concomitant plasma and brain levels of DDC and its congeners after oral dosing of rats; type: in vivo, male Sprague Dawley rats; conditions: rat; for Levels of DDC in plasma and brain relative to a dose of DDC, 0.5 hour: 0.5 hour post dose; for Plasma and brain concentrations of DDC relative to a dose of DDC, 2 hours: 2 hours post dose; for Amounts of analogues still containing the N4-amide in plasma and brain / Plasma and brain levels of DDC relative to DDC dosing: oral dose equivalent to 25 mg DDC, 0.5 and 2 hours
Protocol: (§1) Using an intragastric needle, sexually mature, male Sprague Dawley rats were given single 25 mg/kg oral doses of DDC or equimolar doses of DDC Congeners.
For concomitant plasma and brain level studies, each compound was administered to two animals. Animals were sacrificed by decapitation, one of each pair at 30 minutes and the other at 2 hours post dose. Blood was collected into heparinized cups and plasma was prepared. Samples of each plasma were ultrafiltered (Amicon Centrifree Micropartition Systems) prior to HPLC analysis. Brains were removed, weighed, homogenized in 2 volumes (2 ml/g) deionized water and centrifuged (12,000×g 4° C., 30 min). The resulting supernatants were filtered (0.22 μm filters) prior to HPLC analysis.
(§2) A dual-pump HPLC system was used to analyse samples of urine, feces, plasma and brain for DDC and its congeners and their metabolites. The solvent for pump A was 25 mM phosphoric acid, buffered to pH 7.2 with ammonium hydroxide. The solvent for pump B was 60% acetonitrile in solvent A. Samples were injected onto an Adsorbospher phenyl column (4.6×250 mm, 5 micron spherical packing) and eluted at a flow rate of 1 ml/minute using linear increases in solvent B from 0 to 15% over 15 minutes and from 15 to 100% over 21 minutes, with 5 minute purge (100% B) and 15 minute restore (0% B) period between injections. The absorbance of the column effluent was monitored at 273 and 254 nm. Concentrations of compounds were determined by comparing appropriate peak areas to standard curves obtained from analysis of aqueous solutions of authentic standards. Compounds were identified by comparing retention times and ratios of peak areas at 273 and 254 nm to those of authentic standards.

[3] = Urinary and fecal excretion after oral dosing of rats; type: in vivo, male Sprague Dawley rats; conditions: rat
Protocol: as §1
For urinary and fecal excretion studies, each compound was administered to two animals, which were housed separately in metabolic cages and urine and feces were separated and collected during the 0-24, 24-48 and 48-72 hour intervals post dose. To prevent bacterial growth, sodium azide was placed in the urine collection vessel so that the final concentration, after 24 hours of urine collection, would be about 0.02%. Feces were weighed, homogenized in 9 volumes (9 ml/g) deionized water and centrifuged (12,000×g, 4° C., 30 min). Prior to high-performance liquid chromatographic (HPLC) analysis for drug and metabolite content, samples of the fecal homogenate supernatants and urines were filtered (0.22 μm filters).
as §2

HIV [4] = conditions: known from EP 0216511; cited from earlier work
[5] = in vivo, po, 25 mg/kg, 1440 min

Compound: CCC(=O)Nc1ccn([C@H]2CC[C@@H](CO)O2)c(=O)n1 [Example 2, 2',3'-Dideoxy-N^4-propionylcytidine]
- IC50 (HIV [1]): 36 µM

Compound: CCC(=O)OC[C@@H]1CC[C@H](n2ccc(N)nc2=O)O1 [Example 3, 2',3'-Dideoxy-5'-O-propionylcytidine]
- IC50 (HIV [1]): 1.6 µM
- Levels of DDC in plasma and brain relative to a dose of DDC, 0.5 hour ([2]; oral): higher levels of DDC in the plasma and brain
- Plasma and brain concentrations of DDC relative to a dose of DDC, 2 hours ([2]; oral): lower than those observed after a dose of DDC

Compound: CC(C)(C)C(=O)OC[C@@H]1CC[C@H](n2ccc(N)nc2=O)O1 [Example 6, 2',3'-Dideoxy-5'-O-pivaloylcytidine]
- inhibition at 6.4 µM (HIV [1]; 6.4 μM, read-out: % Protection): 88%
- Increase of oral bioavailability of DDC ([3]; in vivo, po): 2.5 fold
- Levels of DDC in plasma and brain relative to a dose of DDC, 0.5 hour ([2]; oral): higher levels of DDC in the plasma and brain
- Plasma and brain concentrations of DDC relative to a dose of DDC, 2 hours ([2]; oral): lower than those observed after a dose of DDC

Compound: CC(C)(C)C(=O)Nc1ccn([C@H]2CC[C@@H](CO)O2)c(=O)n1 [Example 5, 2',3'-dideoxy-N^4-pivaloylcytidine]
- inhibition at 100 µM (HIV [1]; 100 μM, read-out: % Protection): 42%
- Amounts of analogues still containing the N4-amide in plasma and brain [2]: Much higher amounts
- Plasma and brain levels of DDC relative to DDC dosing [2]: lower than what was observed after dosing with DDC

Compound: Nc1ccn([C@H]2CC[C@@H](CO)O2)c(=O)n1 [DDC, 2',3'-Dideoxycytidine, reference compound]
- Anti-HIV activity (HIV [4]): potent anti-HIV activity
- inhibition at 16 µM (HIV [1]; 16 μM, read-out: % Protection): 99%
- dose excreted at 24 h ([3]; feces, po, 25 mg/kg, rat 1, oral 25 mg/kg, compound detected: DDC, read-out: Percent Dose Excreted as DDC, 0-24 hr Feces): 12%
- dose excreted ([3]; feces, po, 25 mg/kg, two rats, oral 25 mg/kg, feces, DDC, read-out: Average fecal excretion of parent compound): 28.1%
- Average fecal excretion of 2',3'-dideoxyuridine ([3]; in vivo, po, 25 mg/kg): 1.9 % of the dose
- Compound Detected, 24-72 hr Feces ([3]; in vivo, po, 25 mg/kg): none
- Gastrointestinal absorption ([3]; in vivo, po, 25 mg/kg): limited gastrointestinal absorption
- Percent Dose Excreted as ddU, 0-24 hr Feces [3, 5]: 1.1 Percent Dose
- Percent Dose Excreted as ddU, 0-24 hr Urine (second entry so headed) [3, 5]: 2.6 Percent Dose
- Percent Dose Excreted as DDC, 0-24 hr Urine ([3]; single oral dose 25 mg/kg DDC or equimolar, individual rats, compound detected: DDC, 25 mg/kg, 1440 min): 31.6 Percent Dose
- Percent Dose Excreted as DDC, 24-72 hr Urine ([3]; single oral dose 25 mg/kg DDC or equimolar, individual rats, compound detected: DDC, 25 mg/kg, 4320 min): 6.23 Percent Dose and 1.5 Percent Dose
- dose excreted at 24 h ([3]; urine, po, 25 mg/kg, rat 2, oral 25 mg/kg DDC, compound detected: DDC, read-out: Percent Dose Excreted as DDC, 0-24 hr Urine (second entry so headed)): 32.2%
- dose excreted at 24 h ([3]; urine, po, 25 mg/kg, single oral dose 25 mg/kg DDC or equimolar, individual rats, compound detected: DDC, read-out: Percent Dose Excreted as DDC, 0-24 hr Urine): 46.6%
- dose excreted at 72 h ([3]; urine, po, 25 mg/kg, two rats, oral 25 mg/kg DDC or equimolar, urine 72 hours, read-out: Average urinary excretion as DDC): 43%
- Absorption and hydrolysis (plasma level data) ([2]; oral): absorption of DDC although incomplete, may be more prolonged

Compound: CC(C)(C)C(=O)Nc1ccn([C@H]2CC[C@@H](COC(=O)C(C)(C)C)O2)c(=O)n1 [Example 4, 2',3'-dideoxy-N^4,5'-O-dipivaloylcytidine]
- minimal effective concentration (HIV [1]): 25 µM
- Amounts of analogues still containing the N4-amide in plasma and brain [2]: Much higher amounts
- Plasma and brain levels of DDC relative to DDC dosing [2]: lower than what was observed after dosing with DDC

Compound: CCC(=O)Nc1ccn([C@H]2CC[C@@H](COC(=O)CC)O2)c(=O)n1 [Example 1, 2',3'-Dideoxy-N^4, 5'-O-dipropionylcytidine]
- minimal effective concentration (HIV [1]): 25 µM
- Amounts of analogues still containing the N4-amide in plasma and brain [2]: Much higher amounts
- Plasma and brain levels of DDC relative to DDC dosing [2]: lower than what was observed after dosing with DDC
